Assay results reported in paper PMC3268193 (British Journal of Pharmacology, 2012).
Numbering of substitutions follows the chain as printed.

Legend:
P2X1 Cys2(1-6) chimera = target: T1, P2X1 Cys2(1-6) chimera (Homo sapiens, UniProt P51575, A118P/A137L/A141G/A151Y/D154G/DEL120-123/E128S/F152Y/G124S/G131D/I144L/I161V/INS125RVHNAT/INS150P/K127L/K136E/K138D/K140L/K148R/N153Q/P134A/Q142N/R139M/S130A/T133V/T155P/V156S); assay: Two-electrode voltage clamp, chimera P2X1 Cys2; assay type: cell-based; conditions: P2X1 Cys2(1–6)
T1 sequence (P51575 with tags, fused parts or gaps A118P/DEL120-123/G124S/INS125RVHNAT/K127L/E128S/S130A/G131D/T133V/P134A/K136E/A137L/K138D/R139M/K140L/A141G/Q142N/I144L/K148R/INS150P/A151Y/F152Y/N153Q/D154G/T155P/V156S/I161V): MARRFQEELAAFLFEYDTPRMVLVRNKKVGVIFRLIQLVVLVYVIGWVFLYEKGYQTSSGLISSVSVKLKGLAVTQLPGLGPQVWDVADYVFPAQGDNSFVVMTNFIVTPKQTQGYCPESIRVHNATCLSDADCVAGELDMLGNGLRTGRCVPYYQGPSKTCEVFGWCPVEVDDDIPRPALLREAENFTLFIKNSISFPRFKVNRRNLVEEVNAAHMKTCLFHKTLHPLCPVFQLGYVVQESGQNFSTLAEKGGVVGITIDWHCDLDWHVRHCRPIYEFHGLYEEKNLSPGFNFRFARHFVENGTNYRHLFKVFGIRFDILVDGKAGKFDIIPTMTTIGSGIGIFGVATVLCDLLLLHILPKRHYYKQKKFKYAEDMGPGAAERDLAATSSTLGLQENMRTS

[1] = target: T2, P2X1 receptor mutant KAKRK → ELDML(5) (Homo sapiens, UniProt P51575, A137L/K136E/K138D/K140L/R139M); assay: Two-electrode voltage clamp, P2X1 mutant X1-ELDML; assay type: cell-based
T2 sequence (P51575 1-399 K136E/A137L/K138D/R139M/K140L): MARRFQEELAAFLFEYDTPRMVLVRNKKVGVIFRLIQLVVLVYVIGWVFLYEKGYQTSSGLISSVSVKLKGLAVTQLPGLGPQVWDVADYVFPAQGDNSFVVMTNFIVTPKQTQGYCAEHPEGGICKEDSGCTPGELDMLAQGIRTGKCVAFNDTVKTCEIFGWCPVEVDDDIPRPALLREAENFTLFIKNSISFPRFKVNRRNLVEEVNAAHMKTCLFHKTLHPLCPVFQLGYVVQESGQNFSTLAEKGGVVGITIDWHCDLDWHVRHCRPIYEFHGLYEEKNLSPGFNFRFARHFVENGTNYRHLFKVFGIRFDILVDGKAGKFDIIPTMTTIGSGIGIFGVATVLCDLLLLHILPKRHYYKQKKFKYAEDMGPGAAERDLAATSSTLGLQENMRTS

[2] = target: T3, P2X1 receptor mutant R139M (Homo sapiens, UniProt P51575, R139M); assay: Two-electrode voltage clamp, P2X1 mutant R139M; assay type: cell-based
T3 sequence (P51575 1-399 R139M): T2 sequence (P51575 1-399 K136E/A137L/K138D/R139M/K140L) with E136K, L137A, D138K, L140K

[3] = target: T4, P2X1 receptor mutant K140L (Homo sapiens, UniProt P51575, K140L); assay: Two-electrode voltage clamp, P2X1 mutant K140L; assay type: cell-based
T4 sequence (P51575 1-399 K140L): T2 sequence (P51575 1-399 K136E/A137L/K138D/R139M/K140L) with E136K, L137A, D138K, M139R

[4] = target: T5, P2X1 receptor mutant K138D (Homo sapiens, UniProt P51575, K138D); assay: Two-electrode voltage clamp, P2X1 mutant K138D; assay type: cell-based
T5 sequence (P51575 1-399 K138D): T2 sequence (P51575 1-399 K136E/A137L/K138D/R139M/K140L) with E136K, L137A, M139R, L140K

[5] = target: T6, P2X2 receptor mutant X2-KLKML(2) (E134KD136K) (Homo sapiens, UniProt Q9UBL9, D148K/E146K); assay: Two-electrode voltage clamp, P2X2 mutant X2-KLKML; assay type: cell-based; conditions: double mutation E134KD136K
T6 sequence (Q9UBL9 1-471 E146K/D148K): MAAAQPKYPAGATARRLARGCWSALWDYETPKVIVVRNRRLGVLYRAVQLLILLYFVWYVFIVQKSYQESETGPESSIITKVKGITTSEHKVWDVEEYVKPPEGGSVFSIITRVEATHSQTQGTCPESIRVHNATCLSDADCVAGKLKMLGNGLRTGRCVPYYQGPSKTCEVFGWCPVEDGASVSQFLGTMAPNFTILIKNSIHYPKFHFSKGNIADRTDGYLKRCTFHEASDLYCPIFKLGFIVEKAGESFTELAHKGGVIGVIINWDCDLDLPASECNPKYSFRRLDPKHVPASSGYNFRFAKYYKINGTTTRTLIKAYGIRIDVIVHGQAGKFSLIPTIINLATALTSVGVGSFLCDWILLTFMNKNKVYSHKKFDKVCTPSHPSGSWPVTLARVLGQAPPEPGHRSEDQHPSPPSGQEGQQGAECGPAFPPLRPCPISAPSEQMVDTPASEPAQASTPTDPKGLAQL

P2X7 receptor = conditions: ref Fonfria et al., 2008; cited from earlier work
[6] = 1 nM antagonist, EC90 ATP (10 µM)

Row | SMILES | Reduction in NF449 sensitivity compared with P2X1 WT (P2X1 Cys2(1-6) chimera) | Hill slope of NF449 inhibition curve (P2X1 Cys2(1-6) chimera; vs EC90 ATP) | Reduction in NF449 sensitivity compared with WT P2X1 [1] | Reduction of ATP-evoked current [2, 6] | Reduction of ATP-evoked current [3, 6] | Reduction in NF449 sensitivity compared with P2X1 WT [4] | Increase in suramin sensitivity compared with WT P2X2 [5] | Effect of mutation on suramin sensitivity [2] | Effectiveness at guinea pig compared with rat and human P2X7 isoforms (P2X7 receptor) | Effect of mutation on suramin sensitivity [3]
1 | O=C(Nc1cc(C(=O)Nc2ccc(S(=O)(=O)O)cc2S(=O)(=O)O)cc(C(=O)Nc2ccc(S(=O)(=O)O)cc2S(=O)(=O)O)c1)Nc1cc(C(=O)Nc2ccc(S(=O)(=O)O)cc2S(=O)(=O)O)cc(C(=O)Nc2ccc(S(=O)(=O)O)cc2S(=O)(=O)O)c1 [NF449, 4,4′,4′′,4′′′-(carbonylbis(imino-5,1,3-benzenetriyl-bis(carbonylimino)))tetrakis-benzene-1,3-disulphonic acid] | ~300 fold | 1.38 ± 0.07 | ~700 fold | 40–70% | 40–70% | ~10 fold | – | – | – | –
2 | Cc1ccc(C(=O)Nc2ccc(S(=O)(=O)O)c3cc(S(=O)(=O)O)cc(S(=O)(=O)O)c23)cc1NC(=O)c1cccc(NC(=O)Nc2cccc(C(=O)Nc3cc(C(=O)Nc4ccc(S(=O)(=O)O)c5cc(S(=O)(=O)O)cc(S(=O)(=O)O)c45)ccc3C)c2)c1 [suramin] | – | – | – | – | – | – | 10 fold | no effect | ~10 fold | no effect
